{"source": "patent US9290710B2", "about": "“Synergistic antimicrobial composition” (Dow Global Technologies LLC, priority 2009, dated 2016)", "key": {"[1]": {"tested_on": "oil field isolated anaerobic consortium, mainly SRB", "assay": "Biocidal efficacy (MBC, complete kill) of THPS, HHT and THPS/HHT against SRB, 40° C., 24 hour", "format": "cell-based, Sulfate Reducing Bacteria (SRB)", "settings": "alone or in THPS/HHT blend, 10^6 to 10^7 CFU/mL", "method": "Inside an anaerobic chamber (Bactron anaerobic chamber), a deaerated sterile salt solution (3.1183 g of NaCl, 1.3082 mg of NaHCO3, 47.70 mg of KCl, 72.00 mg of CaCl2, 54.49 mg of MgSO4, 172.28 mg of Na2SO4, 43.92 mg of Na2CO3 in 1 L water) was contaminated with an oil field isolated anaerobic consortium, mainly SRB, at final bacterial concentrations of 10^6 to 10^7 CFU/mL. The aliquots of this contaminated water were then treated with THPS and hexahydro-1,3,5-tris(2-hydroxyethyl)-s-triazine (HHT), or the THPS/HHT combination at different active concentration levels. […] Table 1 summarizes the efficacy of each biocide and their blend, and the Synergy Index*^1 of each combination. *^1Synergy Index=Ca/CA+Cb/CB\n• Ca: Concentration of biocide A required to achieve a complete bacterial kill when used in combination with Biocide B • CA: Concentration of biocide A required to achieve a complete bacterial kill when used alone • Cb: Concentration of biocide B required to achieve a complete bacterial kill when used in combination with Biocide A • CB: Concentration of biocide B required to achieve a complete bacterial kill when used alone A Synergy Index less than 1 indicates synergy."}, "oilfield SRB consortium": {"tested_on": "oilfield SRB consortium", "assay": "Biocidal efficacy of THPS/HHT against anaerobic bacteria in a high temperature and sulfide-rich environment", "format": "cell-based, Sulfate Reducing Bacteria (SRB)", "settings": "alone or in THPS/HHT blend, 80° C., 7 days, daily challenge of SRB and 10 ppm sulfide", "method": "Inside an anaerobic chamber (BACTRON IV), biocides solutions were challenged with 10^4 to 10^5 CFU/mL of an oilfield SRB consortium and 10 ppm sulfide ion (added in the form of sodium sulfide). The biocide solutions were then incubated at 80° C. under anaerobic condition for 7 days, with daily challenge of the SRB consortium (10^4 to 10^5 CFU/mL) and sulfide ion (10 ppm). The biocidal efficacy was determined by selecting the lowest testing biocide dosage required for 99.999% or complete bacterial kill after both 2 hours and 7 days of heat, SRB and sulfide exposure. Synergy Index was then calculated. Table 2 summarizes the efficacy of each biocide and their blend, and the Synergy Index of each combination.\n(§1) A Synergy Index less than 1 indicates synergy."}, "[2]": {"tested_on": "oil field isolated anaerobic SRB consortium", "assay": "Biocidal efficacy of THPS, DXN and THPS/DXN against SRB (99.99% reduction in 24 hours)", "format": "cell-based, Sulfate Reducing Bacteria (SRB)", "settings": "alone or in THPS/DXN blend, 40° C., 10^6 to 10^7 CFU/mL", "method": "Inside an anaerobic chamber (Bactron III), a deaerated sterile salt solution (3.1183 g of NaCl, 1.3082 mg of NaHCO3, 47.70 mg of KCl, 72.00 mg of CaCl2, 54.49 mg of MgSO4, 172.28 mg of Na2SO4, 43.92 mg of Na2CO3 in 1 L water) was contaminated with an oil field isolated anaerobic SRB consortium at final bacterial concentrations of 10^6 to 10^7 CFU/mL. The aliquots of this contaminated water were then treated with THPS, DXN, or the THPS/DXN combinations at different active concentration levels. After the mixtures were incubated at 40° C. for 24 hour, the viable bacterial number were enumerated using a serial dilution method and the biocidal efficacy was determined by the biocide dosage required for 99.99% bacterial reduction in 24 hours. Synergy Index was then calculated. Table 3 summarizes the efficacy of each biocide and their blends, and the Synergy Index of each combination.\nas §1"}, "[3]": {"tested_on": "oil field isolated SRB consortium", "assay": "Biocidal efficacy (MBC, complete kill) of THPS, NaOPP and THPS/NaOPP against SRB", "format": "cell-based, Sulfate Reducing Bacteria (SRB)", "settings": "alone or in THPS/NaOPP blend, 40° C., 24 hours, 10^6 to 10^7 CFU/mL", "method": "Inside an anaerobic chamber (Bactron anaerobic chamber), a deaerated sterile salt solution (3.1183 g of NaCl, 1.3082 mg of NaHCO3, 47.70 mg of KCl, 72.00 mg of CaCl2, 54.49 mg of MgSO4, 172.28 mg of Na2SO4, 43.92 mg of Na2CO3 in 1 L water) was contaminated with an oil field isolated SRB consortium, at final bacterial concentrations of 10^6 to 10^7 CFU/mL. The aliquots of this contaminated water were then treated with THPS, NaOPP, or the THPS/NaOPP combinations at different active concentration levels. After the mixtures were incubated at 40° C. for 24 hours, the viable bacteria in the aliquots were detected in culture medium. The biocidal efficacy was determined by minimum tested biocide concentration for a complete bacterial kill in the aliquots (MBC). Table 4 summarizes the efficacy of each biocide and their blends, and the Synergy Index of each combination."}, "[4]": {"tested_on": "oil field isolated anaerobic consortium, mainly SRB", "assay": "Biocidal efficacy of THPS, NaOPP and THPS/NaOPP against anaerobic bacteria (99.999% reduction)", "format": "cell-based, Sulfate Reducing Bacteria (SRB)", "settings": "alone or in THPS/NaOPP blend, 40° C., 24 hour, 10^7 CFU/mL", "method": "Inside an anaerobic chamber (Bactron anaerobic chamber), a deaerated sterile salt solution (3.1183 g of NaCl, 1.3082 mg of NaHCO3, 47.70 mg of KCl, 72.00 mg of CaCl2, 54.49 mg of MgSO4, 172.28 mg of Na2SO4, 43.92 mg of Na2CO3 in 1 L water) was contaminated with an oil field isolated anaerobic consortium, mainly SRB, at final bacterial concentrations of 10^7 CFU/mL. […] After the mixtures were incubated at 40° C. for 24 hour, the viable bacteria were enumerated using serial dilution method. The biocidal efficacy was determined by minimum tested biocide concentration for 99.999% bacterial reduction in the aliquots."}, "[5]": {"tested_on": "Psedomonas aeruginosa ATCC 10145 and Staphylococcus aureus ATCC 6538", "assay": "Biocidal efficacy of THPS, NaOPP and THPS/NaOPP against aerobic bacteria (99.999% reduction)", "format": "cell-based", "settings": "alone or in THPS/NaOPP blend, PBS buffer (pH7), 37° C., 24 hour", "method": "A PBS buffer (pH7) was contaminated with Psedomonas aeruginosa ATCC 10145 and Staphylococcus aureus ATCC 6538 at final bacterial concentration of −10^6 CFU/ml. […] After the mixtures were incubated at 37° C. for 24 hour, the viable bacteria were enumerated using serial dilution method. The biocidal efficacy was determined by minimum tested biocide concentration for 99.999% bacterial reduction in the aliquots."}}, "data": [{"molecule": "OCCN1CN(CCO)CN(CCO)C1", "note": "[HHT, hexahydro-1,3,5-tris(2-hydroxyethyl)-s-triazine]", "values": [{"measurement": "Average MBC HHT", "setting": "[1]; HHT concentration for complete bacteria kill", "value": 79.0, "unit": "active ppm"}, {"measurement": "Dosage required for 99.999% or complete bacterial kill of both 2 h and 7 day heat, SRB, and sulfide exposure, HHT", "setting": "oilfield SRB consortium; HHT", "value": 133.3, "unit": "active ppm"}]}, {"molecule": "CC(=O)OC1CC(C)OC(C)O1", "note": "(stereo not drawn) [DXN, 2,6-dimethyl-1,3-dioxan-4-yl acetate]", "values": [{"measurement": "Dosage required for 99.99% bacterial reduction, DXN", "setting": "[2]; DXN", "value": 330.9, "unit": "active ppm"}]}, {"molecule": "tetrakis(hydroxymethyl)phosphonium sulfate [THPS]", "values": [{"measurement": "Average MBC THPS", "setting": "[3]; THPS concentration for complete bacterial kill", "value": 7.9, "unit": "active ppm"}, {"measurement": "Average MBC THPS", "setting": "[1]; THPS concentration for complete bacteria kill", "value": 6.1, "unit": "active ppm"}, {"measurement": "Dosage required for 99.99% bacterial reduction, THPS", "setting": "[2]; THPS", "value": 5.5, "unit": "active ppm"}, {"measurement": "Concentration required for 99.999% bacterial reduction, THPS", "setting": "[4]; THPS", "value": 11.9, "unit": "ppm active"}, {"measurement": "Dosage required for 99.999% or complete bacterial kill of both 2 h and 7 day heat, SRB, and sulfide exposure, THPS", "setting": "oilfield SRB consortium; THPS", "value": 88.9, "unit": "active ppm"}, {"measurement": "Concentration required for 99.999% bacterial reduction, THPS", "setting": "[5]; THPS", "value": 26.7, "unit": "ppm active"}]}, {"molecule": "[Na+].[O-]c1ccccc1-c1ccccc1", "note": "[NaOPP, sodium o-phenylphenylate]", "values": [{"measurement": "Average MBC NaOPP", "setting": "[3]; NaOPP concentration for complete bacterial kill", "value": 333.3, "unit": "active ppm"}, {"measurement": "Concentration required for 99.999% bacterial reduction, NaOPP", "setting": "[4]; NaOPP", "value": 303.8, "unit": "ppm active"}, {"measurement": "Concentration required for 99.999% bacterial reduction, NaOPP", "setting": "[5]; NaOPP", "value": 202.5, "unit": "ppm active"}]}]}
